The text below walks through data of US20230146675A1, “PYRIMIDO[5,4-d]PYRIMIDINE DERIVATIVES AS ENT INHIBITORS FOR THE TREATMENT OF CANCERS, AND COMBINATION THEREOF WITH ADENOSINE RECEPTOR ANTAGONISTS” (ITEOS BELGIUM SA, priority 2020, published 2023).

Data set [1] concerns human alpha 1-acid glycoprotein (AAG). As to the kind of experiment: AAG binding assay - HPLC assay. Conditions: for retention time (rt) on immobilized human AAG column: 100 μmol/L. As to the method:
Purpose. […] The principle of the assay is a liquid chromatography on a human AAG protein immobilized onto a silica support for separations of compounds following their affinity to AAG protein. By measuring the retention time, the binding to AAG can be determined relatively to the references.
Method. […] Mobile Phase A: 50 mM Ammonium acetate in deionized water; Mobile Phase B: Isopropanol; Column Oven: 8° C.; PDA(nm): 230; Flow Rate (mL/min): 0.2. Test Concentration (μmol/L): 100 (from 10 mmol/L DMSO solution diluted 100 folds by 50 mM Ammonium acetate in deionized water: Isopropanol (1:1)). Generic Gradient: Time (min): 0.01; 5; 13; 14; 20.

Data set [2] concerns the target T1, human ENT1 (Homo sapiens, UniProt Q99808).
T1 sequence (Q99808 1-456): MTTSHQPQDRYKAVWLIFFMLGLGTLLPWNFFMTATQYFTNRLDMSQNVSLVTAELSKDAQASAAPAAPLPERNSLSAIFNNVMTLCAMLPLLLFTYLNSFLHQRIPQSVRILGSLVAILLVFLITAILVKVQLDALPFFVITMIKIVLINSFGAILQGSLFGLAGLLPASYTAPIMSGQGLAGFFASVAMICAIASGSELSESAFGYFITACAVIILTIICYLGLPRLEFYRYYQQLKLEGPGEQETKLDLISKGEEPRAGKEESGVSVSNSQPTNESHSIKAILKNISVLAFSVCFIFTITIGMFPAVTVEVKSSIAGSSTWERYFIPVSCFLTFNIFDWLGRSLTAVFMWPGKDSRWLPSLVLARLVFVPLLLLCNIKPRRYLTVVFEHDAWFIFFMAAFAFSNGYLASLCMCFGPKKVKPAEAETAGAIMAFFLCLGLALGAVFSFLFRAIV
The data set is described as follows: ENT1 binding assay (competition with Sahenta-DY647 on JAR cells). Also on record: JAR cells expressing ENT1 were bought from ATCC; host or cells: JAR cells. Particulars: binned IC50. In short, it runs like this:
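JAR cells were incubated with test compounds and the fluorescent ligand Sahenta-DY647 in competition. Plates were washed twice by centrifugation (4 min, 400 rcf, 4 °C). Binding potency was derived from the final fluorescence.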

Data set [3] deals with human AAG protein. As to the kind of experiment: AAG binding assay - dialysis assay. Particulars: 2 μM, 37° C., 4-hr.
Protocol: Purpose. The aim of this assay is to determine the binding of a compound of interest to the human AAG protein using the robust method of dialysis.
Material. […] The dialysis Buffer (100 mM Phosphate Buffered Saline, pH 7.4) has been prepared by dissolving 28.56 g Na2HPO4.12H2O (AR grade) and 3.12 g NaH2PO4.2H2O (AR grade) into a final volume of 1000 mL ultra pure water, mixed, and adjusted the resulting solution with 1% phosphoric acid or 1 M sodium hydroxide to pH 7.4±0.1. Stored the final solution in 2-8° C. refrigerator within an expiration of a month after preparation.
Method: The dialysis membrane is soaked in dialysis buffer at 4° C. overnight. The following day the membrane is separated into two strips and then soaked in ethanol: water (20:80 v:v) for 20 mins. Then the membrane was rinsed with ultra-pure water 3-4 times. Prepared 400 μM working solution by diluting the stock solution (10 mM) with appropriate volume of DMSO. 5 μL aliquots of each working solution were spiked into 1000 μL of blank protein (matrix) to achieve a 2 μM final concentration as loading solution. The plates of loading solution were mixed well. Aliquots of 150 μL of loading solution were loaded in triplicate to the donor side of each dialysis well and dialyzed against an equal volume of dialysis buffer. […]
The concentration was calculated using the peak area ratio of analyte and internal standard.
Data set [4] deals with T1, human ENT1. As to the kind of experiment: Uridine transport inhibition assay (3H-uridine uptake, MDCKII-ENT1-LV cells). Type of data set: cell-based. Conditions: 3H-uridine (1 μM), 1 min at 25° C. From the text:
Purpose. The aim of this study was to determine the potency of equilibrative nucleoside transporter 1 (ENT1) inhibitors by measuring ENT1-mediated transport is the cellular uptake assay. The human ENT1 transporter can be stably expressed in Madin-Darby Canine Kidney II (MDCKII) cells via transduction. Uridine is efficiently transported by ENT1 and is used as probe in the assay as 3H-uridine. The interaction is detected as the modulation of the initial rate of 3H-uridine transport by human ENT1 into MDCKII-ENT1-LV cells stably expressing ENT1 uptake transporter.

Data set [5] deals with stimulated primary human T cells. The data set is described as follows: T cell proliferation assay (rescue of proliferation in presence of 100 uM ATP). Type of data set: cell-based. The method, then: Purpose. The aim of this study was to determine the potency of equilibrative nucleoside transporter 1 (ENT1) inhibitors to rescue proliferation by stimulated primary human T cells incubated in the presence of 100 uM Adenosine triphosphate (ATP) with: • Condition A: X-VIVO15 • Condition B: X-VIVO15, 2% Human Serum Albumine (HSA) and 0.1% α-1-Acid Glycoprotein (AAG)
Method. Cryopreserved purified human CD3+ T cells were thawed and washed twice with RPMI1640 medium, UltraGlutamine containing 10% hiFBS.
Cells were suspended in PBS containing 10% hiFBS. Cells were stained with CFSE by adding 2 μM solution in PBS, to get a final 1 μM CFSE solution. Cells were incubated while rotating for 5 minutes. Reaction was stopped by adding PBS with 10% FBS and cells were centrifuged for 5 minutes at 1500 rpm.
Cells were resuspended at 1.6×10^6 cells/mL, either in X-VIVO15 medium or in 4% Human Serum Albumin and 0.2% α-1-Acid Glycoprotein. 50 μL of cell suspension (8×10^4 T cells) was added to wells of sterile round-bottom 96-well plates. Cells were activated by adding 50 μL of anti-CD3 anti-CD28 coated microbeads, suspended either in XVIVO-15 medium or in 4% HSA and 0.2% α-1-Acid Glycoprotein, at a ratio of one microbead per two cells.
Serial dilutions of the ENT1 inhibitors were prepared in X-VIVO15 from 10 mM stock solutions in DMSO, and 50 μL was added to the wells.
ATP powder was diluted in X-VIVO15, and 50 μL of this compound was added to the wells to reach a final assay concentration of 100 μM. Final volume of 200 μL.
The experiments were also performed in 384 well plates—all volumes reduced by a factor of 4 ([…]) with a final volume of 50 μL.
Experiments were performed in duplicate. The cells were placed in a 37° C. humidified tissue culture incubator with 5% CO2 for 72 hours for 96 well plates, 96 hours for 384 well plates. After 72 or 96 hours, proliferation was measured determined by CFSE dilution via flow cytometry.
Results. Compounds of the invention have good ENT1 inhibitory properties.

The mark [6] stands for this setting: Condition A: X-VIVO15, read-out: TCell proliferation (Condition A) IC50.
Setting [7] is: Condition B: X-VIVO15, 2% HSA and 0.1% AAG, read-out: TCell proliferation (Condition B) IC50.

SMILES strings stand for the structures. pIC50: −log10 of the molar value. Read-outs that look alike come from different tables or passages of the source.

As to `COCCN(CCOC)c1nc(N2CCCC3(COC3)C2)c2nc(N(CCOC)CCOC)nc(N3CCC(OC)CC3)c2n1` [Compound 97, N2,N2,N6,N6-tetrakis(2-methoxyethyl)-4-(4-methoxypiperidin-1-yl)-8-(2-oxa-6-azaspiro[3.5]nonan-6-yl)pyrimido[5,4-d]pyrimidine-2,6-diamine], the “AAG HPLC” value in data set [1] (AAG binding by HPLC retention time (rt) on CHIRALPAK AGP column, binned) was “−− (rt below 6 min: −−)”. Further, in data set [2], the pIC50 was above 7.00.
On to `COCCN(CCOC)c1nc(N2CCC(OC)CC2)c2nc(N(CCO)CCO)nc(N3CCC(OC)CC3)c2n1` [Compound 27, 2,2′-((6-(bis(2-methoxyethyl)amino)-4,8-bis(4-methoxypiperidin-1-yl)pyrimido[5,4-d]pyrimidin-2-yl)azanediyl)diethanol], for which the “Human alpha-1-acid glycoprotein (AAG) (1 mg/mL) Unbound” value in data set [3] worked out at 89.4% Unbound. In data set [2], this molecule had a pIC50 of 6.00 to 6.30.
Turning to `CC(C)NCC(O)COc1cccc2ccccc12` (stereo not shown) [Propranolol, reference compound], the “retention time (rt) on immobilized human AAG column” value in data set [1] amounted to 14.05 min.
Take `COCCN(CCOC)c1nc(N2CCC(OC)CC2)c2nc(N(CCOC)CCOC)nc(NCc3ccc(F)c(C#N)c3)c2n1` [Compound 149, 5-(((2,6-bis(bis(2-methoxyethyl)amino)-8-(4-methoxypiperidin-1-yl)pyrimido[5,4-d]pyrimidin-4-yl)amino)methyl)-2-fluorobenzonitrile]: the pIC50 in data set [4] is above 7.00; in data set [5] (setting [6]), 6.30 to 7.00; in data set [5] (setting [7]), 6.30 to 7.00; in data set [2], above 7.00.
Regarding `COCCN(CCOC)c1nc(N2CCC(OC)CC2)c2nc(N(CCOC)CCOC)nc(N3CCC(OC)CC3)c2n1` [Compound 2, N2,N2,N6,N6-tetrakis(2-methoxyethyl)-4,8-bis(4-methoxypiperidin-1-yl)pyrimido[5,4-d]pyrimidine-2,6-diamine], the pIC50 was above 7.00 in data set [4], 6.30 to 7.00 in data set [5] (setting [6]), 6.30 to 7.00 in data set [5] (setting [7]) and 6.30 to 7.00 in data set [2]. In data set [1], the “retention time (rt) on immobilized human AAG column” value was found to be 5.2 min. The “Human alpha-1-acid glycoprotein (AAG) (1 mg/mL) Unbound” value in data set [3] turned out to be 24.6% Unbound.
For `COCCN(CCOC)c1nc(N2CCC(OC)CC2)c2nc(N(CCOC)Cc3cc(OC)c(OC)c(OC)c3)nc(N3CCC(OC)CC3)c2n1` [Compound 184, N2,N2,N6-tris(2-methoxyethyl)-4,8-bis(4-methoxypiperidin-1-yl)-N6-(3,4,5-trimethoxybenzyl)pyrimido[5,4-d]pyrimidine-2,6-diamine], the pIC50 in data set [4], in data set [5] (setting [6]), in data set [5] (setting [7]) and in data set [2] was above 7.00 in each case.
On to `COCCN(CCOC)c1nc(N2CCC(OC)CC2)c2nc(N(CCOC)CCOC)nc(N(C)Cc3cccnc3)c2n1` [Compound 81, N2,N2,N6,N6-tetrakis(2-methoxyethyl)-8-(4-methoxypiperidin-1-yl)-N4-methyl-N4-(pyridin-3-ylmethyl)pyrimido[5,4-d]pyrimidine-2,4,6-triamine], for which the pIC50 is above 7.00 in data set [4], 6.30 to 7.00 in data set [5] (setting [6]), 6.00 to 6.30 in data set [5] (setting [7]) and above 7.00 in data set [2].
`CCCN(C)c1nc(N(CCOC)CCOC)nc2c(N3CCC(OC)CC3)nc(N(CCOC)CCOC)nc12` [Compound 68, N2,N2,N6,N6-tetrakis(2-methoxyethyl)-8-(4-methoxypiperidin-1-yl)-N4-methyl-N4-propylpyrimido[5,4-d]pyrimidine-2,4,6-triamine]: the pIC50 is above 7.00 in data set [4], 6.00 to 6.30 in data set [5] (setting [6]), 6.00 to 6.30 in data set [5] (setting [7]) and above 7.00 in data set [2].
In the case of `COCCN(CCOC)c1nc(N2CCC(OC)CC2)c2nc(N(CCO)Cc3cc(OC)c(OC)c(OC)c3)nc(N3CCC(OC)CC3)c2n1` [Compound 186, 2-((6-(bis(2-methoxyethyl)amino)-4,8-bis(4-methoxypiperidin-1-yl)pyrimido[5,4-d]pyrimidin-2-yl)(3,4,5-trimethoxybenzyl)amino)ethanol], the pIC50 in data set [4] was above 7.00; in data set [5] (setting [6]), above 7.00; in data set [5] (setting [7]) it was 6.30 to 7.00; in data set [2] it was above 7.00.
